Results reported in patent US7011826B1, “Control of acidosis” (priority 1999, dated 2006).

Columns and labels:
dogs [1] = assay: Faecal characteristics of dog fed dry dog food with virginiamycin; assay type: in vivo; settings: one dog, virginiamycin 0.5 mg/kg body weight for 7 days
Protocol: Two dogs were fed a commercial dry dog food for 4 weeks before and then during the experimental period. Virginiamycin (Eskalin 20) was added to the diet of one dog for a period of 7 days prior to faecal sampling to provide 0.5 mg/kg body weight. Samples of faeces were taken for the analysis of pH and lactic acid concentrations at the same time as those taken for isolation of lactic acid producing bacteria.

dogs [2] = assay: Virginiamycin dose trial in dogs fed tinned dog food with added raftilose (faecal measurements); assay type: in vivo; set-up: faecal Dry matter / faecal Total VFA: unit not given here; settings: for faecal pH: raftilose diet; for faecal Consistency score: 5 = firm, normal faeces and 1 = diarrhoea
Protocol: The main objective of this trial was to investigate various doses of virginiamycin in terms of its effect on faecal consistency and hind gut fermentation.
Design: There were 4 treatment groups consisting of unmedicated control, and virginiamycin at 3 levels: 0.25, 0.5 and 1 mg/kg body weight. Dogs were acclimatised to a dict based on the tinned ‘No Frills’ dog food for approximately 2 weeks prior to a seven-day treatment period in which fructo-oligosaccharide raftilose was added to the diet at a rate of 3.5 g/kg metabolic body weight. There were five dogs per treatment.
Measurements were made of faecal pH, dry matter, consistency and chemical assays were conducted to measure VFA, D-lactic acid and L-lactic acid.

[3] = system: S. ruminantium (SR R1, SR R2 and SR R3); assay: Virginiamycin sensitivity test (broth growth); assay type: cell-based; settings: Basal Medium 10 with glucose (0.5%)
Protocol: (§1) Two isolates of S. bovis from cattle and sheep (orange pigmented and white), five Clostridium-like vitulinus and three isolates of S. ruminantium were incubated in a branch of basal medium 10 with glucose (0.5%) and virginiamycin (VM) at a concentrations of 0, 2, 4, 6 and 8 μg/ml. The virginiamycin solution (100 μg VM/ml) was prepared using Eskalin Wettable Powder (WP), 400 g/kg VM (Pfizer Animal Health, NSW, Australia). The WP was dissolved in distilled water (previously boiled and bubbled with nitrogen until cooled) and filter-sterilised whilst being gassed with nitrogen. This solution was used immediately after preparation. […] The broth-media was inoculated by 0.2 ml of the different fresh viable cultures and 0.1–0.4 ml of VM solution was added to each tube to provide the required dose. A sensitivity test was also performed when VM was added 3 and 6 h after inoculation, using the same concentrations of VM. Tests for sensitivity to VM were conducted using […] of anaerobic incubation at 39° C.

[4] = system: Clostridium-like vitulinus (LV R5); assay: Virginiamycin sensitivity test (broth growth); assay type: cell-based; settings: Basal Medium 10 with glucose (0.5%)
Protocol: as §1

[5] = system: Clostridium-like vitulinus (LV R1); assay: Virginiamycin sensitivity test (broth growth); assay type: cell-based; settings: Basal Medium 10 with glucose (0.5%)
Protocol: as §1

[6] = system: Clostridium-like vitulinus (LV R3); assay: Virginiamycin sensitivity test (broth growth); assay type: cell-based; settings: Basal Medium 10 with glucose (0.5%)
Protocol: as §1

[7] = system: Clostridium-like vitulinus (LV R2); assay: Virginiamycin sensitivity test (broth growth); assay type: cell-based; settings: Basal Medium 10 with glucose (0.5%)
Protocol: as §1

[8] = system: Clostridium-like vitulinus (LV R4); assay: Virginiamycin sensitivity test (broth growth); assay type: cell-based; settings: Basal Medium 10 with glucose (0.5%)
Protocol: as §1

[9] = system: Clostridium-like isolates; assay: Virginiamycin sensitivity test, VM added 3 and 6 h after inoculation; assay type: cell-based, Clostridium-like vitulinus
Protocol: as §1

[10] = VM 0.25, 0.5 and 1 mg/kg body weight

Question: Which “D(−)Lactate in faeces” value (dogs [1]) does the source give for virginiamycin here?
Answer: 0.45 mmol/L

Question: And the “L(+)Lactate in faeces” value (dogs [1])?
Answer: 0.34 mmol/L

Question: What about the “faecal pH” value (dogs [1]) of the same substance?
Answer: 5.34

Question: What about the “faecal D-lactic acid concentration” value (dogs [2]; VM 0.25 mg/kg body weight) of the same substance?
Answer: 0.2

Question: And the “faecal Dry matter” value (dogs [2]; VM 0.25 mg/kg body weight)?
Answer: 22.0

Question: And the “faecal L-lactic acid concentration” value (dogs [2]; VM 0.25 mg/kg body weight)?
Answer: 2.2

Question: And the “faecal Total VFA” value (dogs [2]; VM 0.25 mg/kg body weight)?
Answer: 80.5

Question: And the “faecal pH” value (dogs [2]; VM 0.25 mg/kg body weight)?
Answer: 5.2

Question: And the “faecal Consistency score” value (dogs [2]; VM 0.25 mg/kg)?
Answer: 3.6

Question: What about the “faecal D-lactic acid concentration” value (dogs [2]; VM 0.5 mg/kg body weight) of the same substance?
Answer: 0.4

Question: And the “faecal Dry matter” value (dogs [2]; VM 0.5 mg/kg body weight)?
Answer: 22.5

Question: What about the “faecal L-lactic acid concentration” value (dogs [2]; VM 0.5 mg/kg body weight) of the same substance?
Answer: 13.8

Question: What about the “faecal Total VFA” value (dogs [2]; VM 0.5 mg/kg body weight) of the same substance?
Answer: 93.7

Question: What about the “faecal pH” value (dogs [2]; VM 0.5 mg/kg body weight) of the same substance?
Answer: 4.9

Question: What about the “faecal Consistency score” value (dogs [2]; VM 0.5 mg/kg) of the same substance?
Answer: 3.7

Question: And the “faecal D-lactic acid concentration” value (dogs [2]; VM 1.0 mg/kg body weight)?
Answer: 0.3

Question: What about the “faecal Dry matter” value (dogs [2]; VM 1.0 mg/kg body weight) of the same substance?
Answer: 24.2

Question: What about the “faecal L-lactic acid concentration” value (dogs [2]; VM 1.0 mg/kg body weight) of the same substance?
Answer: 11.8

Question: What about the “faecal Total VFA” value (dogs [2]; VM 1.0 mg/kg body weight) of the same substance?
Answer: 73.5

Question: And the “faecal pH” value (dogs [2]; VM 1.0 mg/kg body weight)?
Answer: 4.9

Question: What about the “faecal Consistency score” value (dogs [2]; VM 1.0 mg/kg) of the same substance?
Answer: 3.8

Question: And the “effect on L-lactic” value (dogs [2]; [10])?
Answer: little effect

Question: What about the “effect on the pH, faecal consistency, dry matter content and VFA concentrations” value (dogs [2]; [10]) of the same substance?
Answer: little effect

Question: What about the “effect on concentration of d-lactic acid” value (dogs [2]; all levels of inclusion) of the same substance?
Answer: reduce the concentration of d-lactic acid

Question: What about the “highest VM level to which isolates were resistant” value [3] of the same substance?
Answer: 8 µg/mL

Question: And the MIC level [4]?
Answer: 2 µg/mL

Question: And the MIC level [5]?
Answer: 2 µg/mL

Question: What about the “VM level the isolate resisted up to” value [6] of the same substance?
Answer: 4 µg/mL

Question: What about the “VM level the isolate resisted up to” value [7] of the same substance?
Answer: 4 µg/mL

Question: What about the “VM level the isolate resisted up to” value [8] of the same substance?
Answer: 6 µg/mL

Question: What about the “MIC compared with VM added immediately after inoculation” value ([9]; cultures growing 3 h before addition of VM) of the same substance?
Answer: higher MIC

Question: What about the “highest VM level to which isolates were resistant” value ([9]; cultures grown 6 h before addition of VM, all Clostridium-like isolates) of the same substance?
Answer: 8 µg/mL
